{"source": "patent US4457865A", "about": "“Sialic acid specific slug lectin” (Research Corporation, priority 1982, dated 1984)", "molecules": {"B1": {"name": "fetuin: sialoprotein, highly purified bovine fetuin (protein, UniProt P12763 19-359, looked up)", "Alpha-2-HS-glycoprotein": "IPLDPVAGYKEPACDDPDTEQAALAAVDYINKHLPRGYKHTLNQIDSVKVWPRRPTGEVYDIEIDTLETTCHVLDPTPLANCSVRQQTQHAVEGDCDIHVLKQDGQFSVLFTKCDSSPDSAEDVRKLCPDCPLLAPLNDSRVVHAVEVALATFNAESNGSYLQLVEISRAQFVPLPVSVSVEFAVAATDCIAKEVVDPTKCNLLAEKQYGFCKGSVIQKALGGEDVRVTCTLFQTQPVIPQPQPDGAEAEAPSAVPDAAGPTPSAAGPPVASVVVGPSVVAVPLPLHRAHYDLRHTFSGVASVESSSGEAFHVGKTPIVGQPSIPGGPVRLCPGRIRYFKI"}}, "key": {"[1]": {"test_system": "purified LFA (sialic acid specific slug lectin)", "experiment": "Inhibition of hemagglutination by purified LFA", "format": "cell-based, Limax flavus", "settings": "for Inhibition (%) Purified LFA: 0.34 μg purified LFA per assay; for IC50: read-out: Concentration giving 50% inhibition of hemagglutination, affinity purified LFA; for Ability to inhibit hemagglutination by purified slug lectin (in words): some 17 carbohydrates tested, concentrations as high as 10-25 mM", "procedure": "(§1) Hemagglutination Assay: Aliquots of lectin were adjusted to 0.5 ml by addition of tris-saline buffer which contained 0.4 mg/ml gelatin. To this was added 0.5 ml of a solution containing human erythrocytes that had been washed several times with 0.9% NaCl and whose absorbance at 620 nm was ~2. After standing at room temperature for 30 min. the cells were gently pelleted by centrifugation in a Dynac centrifuge. The cells were resuspended by shaking and allowed to stand for 5 min. in order to permit aggregating cells to settle. The absorbance at 620 nm of the upper one-half ml of the erythrocyte suspension was measured and the data were plotted as A620 versus μg or μl of lectin. One unit of activity is defined as the amount of LFA which gave a 50% agglutination. Percent agglutination was calculated as follows: [formula]\n(§2) A 0.5 ml aliquot of erythrocytes was added to the lectin plus inhibitor solution and the percent agglutination determined as described above. The percent inhibition of agglutination represents the difference between the percent agglutination with lectin alone and that obtained with lectin plus inhibitor."}, "[2]": {"test_system": "AS-40-80 fraction (partially purified LFA)", "experiment": "Inhibition of hemagglutination by partially purified LFA (AS-40-80 fraction)", "format": "cell-based, Limax flavus", "settings": "for Inhibition (%) AS-40-80 Fraction: 20 μg protein of AS-40-80 per assay", "procedure": "as §1, §2"}, "slug lectin": {"test_system": "slug lectin", "experiment": "Double diffusion of slug lectin in agar gel against sialoproteins", "format": "binding, Limax flavus"}}, "note": "Where two headings read alike, the source gives them in different places."}
{"molecule": "N[C@H]1C(O)O[C@H](CO)[C@H](O)[C@@H]1O", "note": "(stereo partly drawn) [Galactosamine]", "values": [{"measurement": "Inhibition (%) Purified LFA", "setting": "[1]; carbohydrate 25.0 mM", "result": 0, "unit": "%"}, {"measurement": "Inhibition of hemagglutination by the 40-80% ammonium sulfate fraction (in words)", "setting": "[2]", "result": "inhibition of hemagglutination"}, {"measurement": "Inhibition (%) AS-40-80 Fraction", "setting": "[2]; carbohydrate 25.0 mM", "result": 45, "unit": "%"}]}
{"molecule": "O=C(O)[C@H]1OC(O)[C@H](O)[C@@H](O)[C@@H]1O", "note": "(single isomer, unassigned) [D (-) Glucuronic Acid]", "values": [{"measurement": "Inhibition (%) Purified LFA", "setting": "[1]; carbohydrate 25.0 mM", "result": 0, "unit": "%"}, {"measurement": "Inhibition (%) AS-40-80 Fraction", "setting": "[2]; carbohydrate 25.0 mM", "result": 0, "unit": "%"}]}
{"molecule": "CO[C@H]1O[C@H](CO)[C@@H](O)[C@H](O)[C@H]1O", "note": "[α-Methyl-D-Glucoside]", "values": [{"measurement": "Inhibition (%) Purified LFA", "setting": "[1]; carbohydrate 25.0 mM", "result": 0, "unit": "%"}, {"measurement": "Inhibition (%) AS-40-80 Fraction", "setting": "[2]; carbohydrate 25.0 mM", "result": 0, "unit": "%"}]}
{"molecule": "CC(=O)N[C@H]1C(O)O[C@H](CO)[C@@H](O)[C@@H]1O", "note": "(stereo partly drawn) [N--Acetyl-D-Glucosamine]", "values": [{"measurement": "Inhibition (%) Purified LFA", "setting": "[1]; carbohydrate 10.0 mM", "result": 0, "unit": "%"}, {"measurement": "Inhibition of hemagglutination by the 40-80% ammonium sulfate fraction (in words)", "setting": "[2]", "result": "inhibition of hemagglutination"}, {"measurement": "Inhibition (%) AS-40-80 Fraction", "setting": "[2]; carbohydrate 10.0 mM", "result": 53, "unit": "%"}]}
{"molecule": "CO[C@H]1O[C@H](CO)[C@@H](O)[C@H](O)[C@@H]1O", "note": "[α-Methyl-D-Mannose]", "values": [{"measurement": "Inhibition (%) Purified LFA", "setting": "[1]; carbohydrate 25.0 mM", "result": 0, "unit": "%"}, {"measurement": "Inhibition (%) AS-40-80 Fraction", "setting": "[2]; carbohydrate 25.0 mM", "result": 0, "unit": "%"}]}
{"molecule": "CC(=O)N[C@H]1[C@H]([C@H](O)[C@H](O)CO)OC(O)(C(=O)O)C[C@@H]1O", "note": "(stereo partly drawn) [N--Acetylneuraminic Acid, N-acetylneuraminic acid]", "values": [{"measurement": "Inhibition (%) Purified LFA", "setting": "[1]; carbohydrate .05 mM", "result": 1, "unit": "%"}, {"measurement": "Inhibition (%) Purified LFA", "setting": "[1]; carbohydrate .10 mM", "result": 28, "unit": "%"}, {"measurement": "Inhibition (%) Purified LFA", "setting": "[1]; carbohydrate .15 mM", "result": 54, "unit": "%"}, {"measurement": "Inhibition (%) Purified LFA", "setting": "[1]; carbohydrate .20 mM", "result": 100, "unit": "%"}, {"measurement": "IC50", "setting": "[1]", "result": 130, "unit": "µM"}, {"measurement": "Ability to inhibit hemagglutination by purified slug lectin (in words)", "setting": "[1]", "result": "effective"}, {"measurement": "Inhibition of hemagglutination by the 40-80% ammonium sulfate fraction (in words)", "setting": "[2]", "result": "inhibition of hemagglutination"}, {"measurement": "Inhibition (%) AS-40-80 Fraction", "setting": "[2]; carbohydrate .05 mM", "result": 6, "unit": "%"}, {"measurement": "Inhibition (%) AS-40-80 Fraction", "setting": "[2]; carbohydrate .10 mM", "result": 17, "unit": "%"}, {"measurement": "Inhibition (%) AS-40-80 Fraction", "setting": "[2]; carbohydrate .15 mM", "result": 27, "unit": "%"}, {"measurement": "Inhibition (%) AS-40-80 Fraction", "setting": "[2]; carbohydrate .20 mM", "result": 94, "unit": "%"}]}
{"molecule": "OC[C@H]1OC(O)[C@H](O)[C@@H](O)[C@H]1O", "note": "(single isomer, unassigned) [D (+) Galactose]", "values": [{"measurement": "Inhibition (%) Purified LFA", "setting": "[1]; carbohydrate 25.0 mM", "result": 0, "unit": "%"}, {"measurement": "Inhibition (%) AS-40-80 Fraction", "setting": "[2]; carbohydrate 25.0 mM", "result": 0, "unit": "%"}]}
{"molecule": "O=C(CO)N[C@H]1[C@H]([C@H](O)[C@H](O)CO)OC(O)(C(=O)O)C[C@@H]1O", "note": "(stereo partly drawn) [N--Glycolyneuraminic Acid, N-glycolylneuraminic acid]", "values": [{"measurement": "Inhibition (%) Purified LFA", "setting": "[1]; carbohydrate 1.0 mM", "result": 85, "unit": "%"}, {"measurement": "Inhibition (%) Purified LFA", "setting": "[1]; carbohydrate .25 mM", "result": 0, "unit": "%"}, {"measurement": "Inhibition (%) Purified LFA", "setting": "[1]; carbohydrate .50 mM", "result": 2, "unit": "%"}, {"measurement": "Inhibition (%) Purified LFA", "setting": "[1]; carbohydrate .75 mM", "result": 14, "unit": "%"}, {"measurement": "IC50", "setting": "[1]", "result": 900, "unit": "µM"}, {"measurement": "IC50", "setting": "[1]; listed as GlyNeu", "result": 810, "unit": "µM"}, {"measurement": "Ability to inhibit hemagglutination by purified slug lectin (in words)", "setting": "[1]", "result": "effective"}, {"measurement": "Inhibition of hemagglutination by the 40-80% ammonium sulfate fraction (in words)", "setting": "[2]", "result": "inhibition of hemagglutination"}, {"measurement": "Inhibition (%) AS-40-80 Fraction", "setting": "[2]; carbohydrate 1.0 mM", "result": 88, "unit": "%"}, {"measurement": "Inhibition (%) AS-40-80 Fraction", "setting": "[2]; carbohydrate .25 mM", "result": 3, "unit": "%"}, {"measurement": "Inhibition (%) AS-40-80 Fraction", "setting": "[2]; carbohydrate .50 mM", "result": 20, "unit": "%"}, {"measurement": "Inhibition (%) AS-40-80 Fraction", "setting": "[2]; carbohydrate .75 mM", "result": 56, "unit": "%"}]}
{"molecule": "C[C@@H]1O[C@@H](O)[C@@H](O)[C@H](O)[C@@H]1O", "note": "[α-L(-) Fucose]", "values": [{"measurement": "Inhibition (%) Purified LFA", "setting": "[1]; carbohydrate 25.0 mM", "result": 0, "unit": "%"}, {"measurement": "Inhibition (%) AS-40-80 Fraction", "setting": "[2]; carbohydrate 25.0 mM", "result": 0, "unit": "%"}]}
{"molecule": "OC[C@H]1OC(O)[C@@H](O)[C@@H](O)[C@@H]1O", "note": "(single isomer, unassigned) [D (+) Mannose]", "values": [{"measurement": "Inhibition (%) Purified LFA", "setting": "[1]; carbohydrate 25.0 mM", "result": 0, "unit": "%"}, {"measurement": "Inhibition (%) AS-40-80 Fraction", "setting": "[2]; carbohydrate 25.0 mM", "result": 0, "unit": "%"}]}
{"molecule": "CC(=O)N[C@H]1C(O)O[C@H](CO)[C@H](O)[C@@H]1O", "note": "(stereo partly drawn) [N--Acetyl-D-Galactosamine]", "values": [{"measurement": "Inhibition (%) Purified LFA", "setting": "[1]; carbohydrate 10.0 mM", "result": 0, "unit": "%"}, {"measurement": "Inhibition of hemagglutination by the 40-80% ammonium sulfate fraction (in words)", "setting": "[2]", "result": "inhibition of hemagglutination"}, {"measurement": "Inhibition (%) AS-40-80 Fraction", "setting": "[2]; carbohydrate 10.0 mM", "result": 75, "unit": "%"}]}
{"molecule": "OC[C@H]1OC(O)[C@H](O)[C@@H](O)[C@@H]1O", "note": "(single isomer, unassigned) [D (-) Glucose]", "values": [{"measurement": "Inhibition (%) Purified LFA", "setting": "[1]; carbohydrate 25.0 mM", "result": 0, "unit": "%"}, {"measurement": "Inhibition (%) AS-40-80 Fraction", "setting": "[2]; carbohydrate 25.0 mM", "result": 0, "unit": "%"}]}
{"molecule": "O[C@@H]1[C@@H](O)[C@@H](O)CO[C@H]1O", "note": "[α (+) Arabinose]", "values": [{"measurement": "Inhibition (%) Purified LFA", "setting": "[1]; carbohydrate 25.0 mM", "result": 0, "unit": "%"}, {"measurement": "Inhibition (%) AS-40-80 Fraction", "setting": "[2]; carbohydrate 25.0 mM", "result": 0, "unit": "%"}]}
{"molecule": "OC1OC[C@@H](O)[C@H](O)[C@H]1O", "note": "(single isomer, unassigned) [D (+) Xylose]", "values": [{"measurement": "Inhibition (%) Purified LFA", "setting": "[1]; carbohydrate 25.0 mM", "result": 0, "unit": "%"}, {"measurement": "Inhibition (%) AS-40-80 Fraction", "setting": "[2]; carbohydrate 25.0 mM", "result": 0, "unit": "%"}]}
{"molecule": "N[C@H]1C(O)O[C@H](CO)[C@@H](O)[C@@H]1O", "note": "(stereo partly drawn) [Glucosamine]", "values": [{"measurement": "Inhibition (%) Purified LFA", "setting": "[1]; carbohydrate 25.0 mM", "result": 0, "unit": "%"}, {"measurement": "Inhibition of hemagglutination by the 40-80% ammonium sulfate fraction (in words)", "setting": "[2]", "result": "inhibition of hemagglutination"}, {"measurement": "Inhibition (%) AS-40-80 Fraction", "setting": "[2]; carbohydrate 25.0 mM", "result": 19, "unit": "%"}]}
{"molecule": "OC[C@H]1O[C@@H](O[C@H]2[C@H](O)[C@@H](O)C(O)O[C@@H]2CO)[C@H](O)[C@@H](O)[C@H]1O", "note": "(stereo partly drawn) [Lactose]", "values": [{"measurement": "Inhibition (%) Purified LFA", "setting": "[1]; carbohydrate 25.0 mM", "result": 0, "unit": "%"}, {"measurement": "Inhibition (%) AS-40-80 Fraction", "setting": "[2]; carbohydrate 25.0 mM", "result": 0, "unit": "%"}]}
{"molecule": "OC[C@H]1O[C@@](CO)(O[C@H]2O[C@H](CO)[C@@H](O)[C@H](O)[C@H]2O)[C@@H](O)[C@@H]1O", "note": "[Sucrose]", "values": [{"measurement": "Inhibition (%) Purified LFA", "setting": "[1]; carbohydrate 25.0 mM", "result": 0, "unit": "%"}, {"measurement": "Inhibition (%) AS-40-80 Fraction", "setting": "[2]; carbohydrate 25.0 mM", "result": 0, "unit": "%"}]}
{"molecule": "B1", "values": [{"measurement": "Inhibitory activity on slug lectin hemagglutination after asialylation", "setting": "[1]; after incubation at 80° for one hour in 0.1N H2SO4", "result": "complete loss of inhibitory activity"}, {"measurement": "Precipitin lines in double diffusion against slug lectin after asialylation", "setting": "slug lectin; asialylated sialoprotein", "result": "lost"}, {"measurement": "Precipitin lines in double diffusion against slug lectin", "setting": "slug lectin; native sialoprotein", "result": "yielded precipitin lines"}]}
